In brackets after ≈: the same amount, converted by molar mass.

This is an account of results in ChEMBL document CHEMBL5532659, “Design, Synthesis, and Evaluation of Cephamycin-Based Antisporulation Agents targeting Clostridioides difficile” (J Med Chem, 2024).

Data set [1] is described as follows: Inhibition of Clostridium difficile SpoVD using Boc-FL as substrate preincubated for 30 mins followed by substrate addition measured after 30 mins by FP assay. Also noted: species or system Clostridioides difficile.
The test system of data set [2] is Clostridioides difficile. Nature of the data set: Anti-sporulation activity against Clostridium difficile M7404 assessed as fold reduction in spore count incubated overnight by absorbance based assay relative to control. The format is functional.
Data set [3] deals with Clostridioides difficile. Nature of the data set: Antimicrobial activity against Clostridium difficile assessed as microbial growth inhibition incubated for 18 hrs. The format is functional.
In data set [4] the test system is Staphylococcus aureus. Nature of the data set: Antimicrobial activity against methicillin-resistant Staphylococcus aureus ATCC 43300 assessed as microbial growth inhibition incubated for 18 hrs. The format is functional.
Data set [5] relates to Escherichia coli. In words: Antimicrobial activity against Escherichia coli ATCC 25922 assessed as microbial growth inhibition incubated for 18 hrs. The format is functional.
Data set [6] relates to Klebsiella pneumoniae. In words: Antimicrobial activity against multidrug-resistant Klebsiella pneumoniae ATCC 700603 assessed as microbial growth inhibition incubated for 18 hrs. In kind it is functional.
For data set [7], the system named is Pseudomonas aeruginosa. In words: Antimicrobial activity against Pseudomonas aeruginosa ATCC 27853 assessed as microbial growth inhibition incubated for 18 hrs. In kind it is functional.
In data set [8] the test system is Acinetobacter baumannii. In words: Antimicrobial activity against Acinetobacter baumannii ATCC 19603 assessed as microbial growth inhibition incubated for 18 hrs. In kind it is functional.
The subject of data set [9] is Candida albicans. In words: Antimicrobial activity against Candida albicans ATCC 90028 assessed as microbial growth inhibition incubated for 36 hrs by resazurin dye based assay. The format is functional.
For data set [10], the system named is Cryptococcus neoformans. In words: Antimicrobial activity against Cryptococcus neoformans ATCC 208821 assessed as microbial growth inhibition incubated for 36 hrs by resazurin dye based assay. In kind it is functional.
Data set [11] is described as follows: Cytotoxicity against HEK293 cells incubated for 20 hrs by resazurin dye based assay. The format is toxicity, cell-based. As to conditions: human. Background: The colour change of resazurin is a common sign of viable cells or microbes.
The subject of data set [12] is Erythrocyte. In words: Hemolytic activity in human RBC incubated for 70 mins by absorbance based assay. The format is toxicity, cell-based. As to conditions: 1.167 h.

Usually IC50 stands for the concentration needed to halve the response being measured. In general, MIC50 refers to an inhibitory concentration at the 50% level, which refers to growth in some studies and to a panel of isolates in others. One may read the CC50 as the concentration that lowers cell viability or growth by half. The low end stands for greater toxicity to the cells, the high end for lower toxicity to the cells. For the compound `CO[C@@]1(NC(=O)Cn2cc(-c3cccc4cccnc34)nn2)C(=O)N2C(C(=O)O)=C(CSc3nnnn3C)CS[C@@H]21`, in data set [1], the midpoint of inhibition, the IC50, lay at 472 nM. In data set [2], the “fold change (FC)” value came out at 100. Further, the MIC50 was greater than 40 µg/mL in data set [3]; 32 µg/mL (≈ 53.8 µM) in [4]; greater than 32 µg/mL in data set [5]; greater than 32 µg/mL in data set [6]; greater than 32 µg/mL in [7]; greater than 32 µg/mL in data set [8]. Besides, the MIC50 in [9] and in data set [10] was greater than 32 µg/mL each time. Moreover, the CC50 at 20 h in data set [11] is greater than 32 µg/mL. The HC10 in data set [12] was greater than 32 µg/mL.
Consider `CO[C@@]1(NC(=O)Cn2cc(C(=O)O)nn2)C(=O)N2C(C(=O)O)=C(CSc3nnnn3C)CS[C@@H]21`, for which the “fold change (FC)” value in data set [2] was found to be 100. Besides, the MIC50 is 20 µg/mL (≈ 39.1 µM) in data set [3]; no more than 0.25 µg/mL in data set [4]; 16 µg/mL (≈ 31.3 µM) in data set [5]; greater than 32 µg/mL in [6]; greater than 32 µg/mL in data set [7]; greater than 32 µg/mL in data set [8]. Further, the MIC50 in data set [9] and in data set [10] was greater than 32 µg/mL throughout. Besides, the CC50 at 20 h in data set [11] was greater than 32 µg/mL. This compound also returned an HC10 in [12] greater than 32 µg/mL.
The compound `CO[C@@]1(NC(=O)Cn2cc(-c3cccc4ccccc34)nn2)C(=O)N2C(C(=O)O)=C(CSc3nnnn3C)CS[C@@H]21` had an IC50 in data set [1] of 86 nM. In addition, the “fold change (FC)” value in data set [2] is given as greater than 100000. Moreover, the MIC50 in data set [3] is 40 µg/mL (≈ 67.4 µM); in data set [4], 8 µg/mL (≈ 13.5 µM); in data set [5] it was 32 µg/mL (≈ 53.9 µM); in data set [6] it was greater than 32 µg/mL; in data set [7], greater than 32 µg/mL; in [8], greater than 32 µg/mL. Besides, the MIC50 in data set [9] and in [10] was greater than 32 µg/mL in each case. The compound also returned a CC50 at 20 h in data set [11] greater than 32 µg/mL. In data set [12], the HC10 is greater than 32 µg/mL.
`CO[C@@]1(NC(=O)Cn2cc(C3CCCCC3)nn2)C(=O)N2C(C(=O)O)=C(CSc3nnnn3C)CS[C@@H]21`: the IC50 in data set [1] came out at 90 nM. For the same compound, in data set [2], the “fold change (FC)” value is greater than 100000. Also, the MIC50 in data set [3] is 5 µg/mL (≈ 9.1 µM); in [4], 32 µg/mL (≈ 58.2 µM); in data set [5], 32 µg/mL (≈ 58.2 µM); in data set [6], greater than 32 µg/mL; in data set [7] it was greater than 32 µg/mL; in data set [8] it was greater than 32 µg/mL. Besides, the MIC50 in data set [9] and in [10] was greater than 32 µg/mL each time. Further, in data set [11], the CC50 at 20 h was greater than 32 µg/mL. In data set [12], this compound gave an HC10 of 10 µg/mL.
Compound `CO[C@@]1(NC(=O)C2SC(=C(C(N)=O)C(=O)O)S2)C(=O)N2C(C(=O)O)=C(CSc3nnnn3C)CS[C@@H]21` (some centres not stated) [CEFOTETAN] had an IC50 in data set [1] of 15 nM. For the same compound, the “fold change (FC)” value in [2] amounted to 10000. Moreover, the MIC50 in [3] was 20 µg/mL (≈ 34.7 µM); in [4] it was greater than 32 µg/mL; in data set [5], 4 µg/mL (≈ 6.95 µM); in [6], greater than 32 µg/mL; in data set [7], greater than 32 µg/mL; in data set [8] it was greater than 32 µg/mL. For the same compound, the MIC50 in data set [9] and in data set [10] was greater than 32 µg/mL each time. The CC50 at 20 h in data set [11] is greater than 32 µg/mL. In data set [12], this compound gave an HC10 greater than 32 µg/mL.
In the case of `CO[C@@]1(NC(=O)Cn2cc(-c3cccc(F)c3)nn2)C(=O)N2C(C(=O)O)=C(CSc3nnnn3C)CS[C@@H]21`, in data set [1], it took 131 nM to reach half-maximal inhibition (IC50). In addition, in [2], the “fold change (FC)” value stood at 1000. Further, the MIC50 in data set [3] is 5 µg/mL (≈ 8.9 µM); in [4], 32 µg/mL (≈ 57 µM); in [5], 32 µg/mL (≈ 57 µM); in data set [6] it was greater than 32 µg/mL; in [7], greater than 32 µg/mL; in data set [8], greater than 32 µg/mL. Besides, the MIC50 in data set [9] and in data set [10] was greater than 32 µg/mL each time. Also, the CC50 at 20 h in [11] came out at 13.2 µg/mL (≈ 23.5 µM). Further, the HC10 in data set [12] was greater than 32 µg/mL.
As to `CO[C@@]1(NC(=O)Cn2cc(C(C)(C)O)nn2)C(=O)N2C(C(=O)O)=C(CSc3nnnn3C)CS[C@@H]21`, the “fold change (FC)” value in data set [2] stood at 100. Also, the MIC50 is 40 µg/mL (≈ 76.1 µM) in data set [3]; 32 µg/mL (≈ 60.9 µM) in [4]; 32 µg/mL (≈ 60.9 µM) in [5]; 32 µg/mL (≈ 60.9 µM) in data set [6]; greater than 32 µg/mL in data set [7]; greater than 32 µg/mL in data set [8]. In addition, the MIC50 in data set [9] and in data set [10] was greater than 32 µg/mL throughout. The same compound showed a CC50 at 20 h in data set [11] of 0.7 µg/mL (≈ 1.33 µM). Moreover, in data set [12], the HC10 came to 17 µg/mL.
